The results in this text go back to patent US6833249B2, “Quick and sensitive method of quantifying mycolic acid to develop anti-microbial agents and a diagnostic kit thereof” (Council of Scientific and Industrial Research, priority 2002, dated 2004).

For this test, the system named is mycolic acid biosynthesis. The test can be described thus: spectrophotometric assay of mycolic acid (carbol fuchsin complex) from treated M. smegmatis cells. The format is cell-based, Mycobacterium smegmatis. The note with it: for production/synthesis of mycolic acid: Mycobacterium smegmatis treated with the substance, result in words; for absorbance at 495.89 nm: mycolic acid-carbol fuchsin complex in hexane, M. smegmatis grown 48 hrs at sub-lethal concentration (½ MIC): extract 312 μg/ml, thebaine 150 μg/ml, isoniazid 1 μg/ml, untreated control 1.4885. An excerpt:
Mycolic acids are branched, β-hydroxy fatty acids which occur in the cell wall of Corynebacterium, Nocardia and Mycobacterium. Their molecular size varies with the genus, i.e., from 30, 50, 80-carbon atoms in the order described above. Because of the correlation between genus and mycolic acid size, the test for this biochemical marker is done in the early stage of the identification of unknown actinomycetes. The method followed in this invention for the extraction of mycolic acid is according to Minniken et al. (1975). After proper growth of the bacteria, the culture is centrifuged at 5000 RPM for 5 minutes and lyophilized. Dry bacteria (100 mg) are mixed with methanol (5 ml), Toluene (5 ml) and concentrated sulphuric acid (0.2 ml) in a 20-ml screw cap tube (poly tetra fluoro ethylene lined). The contents of the tube are mixed thoroughly and methanolysis is allowed to proceed for 12-16 hours at 75° C. (stationary incubation). The reaction mixture is allowed to cool and mycolic acid is extracted by adding 1 ml of hexane. After vigorous mixing the mixture is allowed to settle and the upper hexane layer containing mycolic acid is collected. Samples of the hexane extract were spotted on TLC coated with Merck silica gel H (0.5 mm), along with standard mycolic acid and the chromatogram is developed in petroleum ether: diethyl ether (85:15).
By using this method the mycolic acid produced by the control was quantified as well as treated cells of M. smegmatis with different plant extracts and compounds. Some of the compounds are known to inhibit mycolic acid biosynthesis and others are plant extracts and unknown compounds. The compounds and the extracts were selected on the basis of loosening of acid fast stain in Mycobacterium smegmatis.
The culture of Mycobacterium smegmatis was frown in nutrient broth containing the sub-lethal concentration (½ MIC) of the compounds/extracts for 48 hrs. The cells were harvested by centrifugation and the pellets were lyophilized. Equal amount of the cells (100 mg) were taken both of control and treated cells and kept for methanolysis overnight as described in Example 1. The extracted hexane layer was allowed to dry and a common stock (5 mg/ml) was used to run a TLC plate to determine how much the inhibition of mycolic acid by calculation the amount of produced mycolic acid by a densitometer.
Compounds, which were showing loosening of acid fast staining, were also tested for spectrophotometric assay. The strain of Mycobacterium smegmatis giving 100% acid fast staining was grown for 48 hours in 50 ml culture media. As described earlier treatment of different compounds were given at sub-lethal concentrations in replicates were also grown for 48 hours. […]
The details of the treatments and the absorbance by different treatments are described in Table 2.

In the case of `NNC(=O)c1ccncc1` [Isoniazid], the “production/synthesis of mycolic acid” value is given as “does not allow the production of mycolic acid” and the “absorbance at 495.89 nm” value was 0.

Take `COC1=CC=C2[C@H]3Cc4ccc(OC)c5c4[C@@]2(CCN3C)[C@H]1O5` [Thebaine]: the “production/synthesis of mycolic acid” value is given as “do not allow the synthesis of mycolic acid” and the “absorbance at 495.89 nm” value stood at 0.
